Source: patent US20230117680A1, “CYCLOPHILIN D INHIBITORS AND USES THEREOF” (The Broad Institute, Inc., priority 2019, published 2023)
pIC50: −log10 of the molar value. “Also recorded” adds a separate entry of the source. One block for each molecule: values may come before it.

Legend:
[1] = tested on: 10 other cyclophilins with reported prolyl isomerase activity; experiment: cyclophilin specificity screen: CypD against the other cyclophilins; type: biochemical
Description: (§1) The selectivity of a compound described herein in inhibiting the activity of a first cyclophilin (e.g., CypD) over a second cyclophilin may be measured by the quotient of the IC50 value of the compound in inhibiting the activity of the second cyclophilin over the IC50 value of the compound in inhibiting the activity of the first cyclophilin. The selectivity of a compound described herein in modulating the activity of a first cyclophilin over a second cyclophilin may also be measured by the quotient of the Kd value of an adduct of the compound and the second cyclophilin over the Kd value of an adduct of the compound and the first cyclophilin (e.g., CypD). […] In certain embodiments, selectivity for inhibiting a first cyclophilin over other cyclophilins is measured by Surface Plasmon Resonance (SPR) assays as disclosed in the Examples.
(§2) Following the synthesis of the indicated library members, in vitro inhibition (IC50) assays of these hits were conducted to obtain IC50 inhibitory data. For the IC50 assays, a chymotrypsin coupled PPIase assay using Suc-AAPF-AMC as the peptide substrate was used, whereby isomerization of a peptide substrate Suc-AAPF-AMC from the cis to trans conformation allowed for proteolysis via excess a-chymotrypsin, releasing the C-terminal coumarin fluorophore.
Subsequently, to determine if the compounds could both access the S2 pocket and display CypD specificity, JOMBtrans and compound 49 were screened against the 10 other cyclophilins with reported prolyl isomerase activity. […] Co-crystal structures of JOMBtrans and 49 were solved with CypD.

[2] = tested on: mPTP in isolated mice kidney mitochondria; experiment: inhibition of mPTP in isolated mitochondria (tolerated Ca2+ pulses before full mPTP opening); conditions: result in words
Method: In isolated mice kidney mitochondria, the maximum number of Ca^2+ pulses that could be tolerated before full mPTP opening was measured (see FIG. 24).

[3] = biological target: CypD (Homo sapiens, UniProt P30405); experiment: chymotrypsin coupled PPIase assay (Suc-AAPF-AMC substrate), CypD inhibition; type: biochemical
Description: as §1, §2

CypD, sequence (P30405 30-207): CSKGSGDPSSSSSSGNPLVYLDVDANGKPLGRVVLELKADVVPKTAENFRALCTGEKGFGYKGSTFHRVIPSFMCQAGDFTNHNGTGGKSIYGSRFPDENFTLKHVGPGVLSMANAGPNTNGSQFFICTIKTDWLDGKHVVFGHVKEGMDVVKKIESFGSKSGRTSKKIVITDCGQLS

specificity / selectivity profile for CypD (in words) ([1]; result in words): preference for CypD
Structure (SMILES): NCCOCCNC(=O)[C@@H]1CCNC(=O)/C=C/C(=O)N2CCC[C@](Cc3ccccc3)(C2)C(=O)N[C@@H](Cc2ccc(-c3ccc(/C=C/C(=O)O)cc3)cc2)C(=O)NCc2ccccc2CC(=O)N1 [A-82]

Structure (SMILES): NCCOCCNC(=O)[C@@H]1CCNC(=O)/C=C/C(=O)N2CCC[C@](Cc3ccccc3)(C2)C(=O)N[C@@H](Cc2ccc(-c3ccc(C(=O)O)cc3)cc2)C(=O)NCc2ccccc2CC(=O)N1 [A-54]
specificity / selectivity profile for CypD (in words) ([1]; result in words): best specificity profiles; also recorded: preference for CypD

Structure (SMILES): NC(=O)[C@@H]1CCNC(=O)/C=C/C(=O)N2CCC[C@](Cc3ccccc3)(C2)C(=O)N[C@@H](Cc2ccc(-c3ccc(CCC(=O)O)cc3)cc2)C(=O)NCc2ccccc2CC(=O)N1 [A-81b]
number of tolerated Ca2+ pulses before full mPTP opening [2]: extended pulse number; also recorded: almost as potent as CsA

Structure (SMILES): CC(=O)c1ccc(-c2ccc(C[C@@H]3NC(=O)[C@]4(Cc5ccccc5)CCCN(C4)C(=O)/C=C/C(=O)NCC[C@@H](C(N)=O)NC(=O)Cc4ccccc4CNC3=O)cc2)cc1 [A-22b]
number of tolerated Ca2+ pulses before full mPTP opening [2]: extended pulse number

increase in potency compared to JOMBtrans [3]: 75 fold
pIC50 ([3]; read-out: potency for CypD): 6.70
potency for CypD (in words) ([3]; result in words): low potency
specificity for CypD compared to any other cyclophilins [1]: approximately 10 fold
decrease in inhibition against other family members compared to CypD ([1]; result in words): at most a ten-fold decrease
Structure (SMILES): NCCOCCNC(=O)[C@@H]1CCNC(=O)/C=C/C(=O)N2CCC[C@](Cc3ccccc3)(C2)C(=O)N[C@@H](Cc2ccco2)C(=O)NCc2ccccc2CC(=O)N1 [compound 49]
specificity / selectivity profile for CypD (in words) ([1]; result in words): low specificity; also recorded: very promiscuous cyclophilin inhibition

specificity / selectivity profile for CypD (in words) ([1]; result in words): preference for CypD
Structure (SMILES): NCCOCCNC(=O)[C@@H]1CCNC(=O)/C=C/C(=O)N2CCC[C@](Cc3ccccc3)(C2)C(=O)N[C@@H](Cc2ccc(-c3ccc(CC(=O)O)cc3)cc2)C(=O)NCc2ccccc2CC(=O)N1 [A-63]

Structure (SMILES): Cc1cc(C(=O)O)ccc1-c1ccc(C[C@@H]2NC(=O)[C@]3(Cc4ccccc4)CCCN(C3)C(=O)/C=C/C(=O)NCC[C@@H](C(=O)NCCOCCN)NC(=O)Cc3ccccc3CNC2=O)cc1 [A-57]
specificity / selectivity profile for CypD (in words) ([1]; result in words): best specificity profiles; also recorded: preference for CypD
